For one data set, the system named is vincristine-related pain. Nature of the data set: Treatment of vincristine-induced hyperalgesia in humans. The class given is in vivo, human. The following applies: s.c., once daily for 14 days. The text has this:
Patients will be recruited to the study as they present in clinic with chronic (>6 months' duration), spontaneous, ongoing, vincristine-related pain. Those enrolled will rate their daily maximum level of pain at 4 or greater on a visual analogue scale (VAS). The patients will be screened for their willingness to enroll in the study, and informed consent will be obtained. Healthy subjects will also be recruited for collection of comparison data. No subjects in either the patient or comparison group will have known risk factors for any other cause of peripheral neuropathy, including diabetes, AIDS, chronic alcoholism, or previous radiation exposure. […] Touch and Sharpness Detection Thresholds-Touch detection thresholds will be determined with von Frey monofilaments using the up/down method as previously reported. […] The force of the filament detected four consecutive times will be assigned as the touch detection threshold. Sharpness detection will be determined using weighted 30-gauge metal cylinders. […] The percentages of each reply will be calculated and then combined into group grand means for comparison. The 50% sharpness detection threshold will be calculated as the weighted needle that caused five or more sharp responses after 10 consecutive stimuli. Grooved Pegboard Test-Manual dexterity will be assessed with the grooved pegboard test. […]

The subject of data set [1] is Caco-2 cells (human intestinal epithelial cells). Type of data set: in vitro ADME. The method, then:
The cellular uptake of [^3H] SPN10(s) (with or without aromatic-cationic peptides) or [^3H] peptide conjugates will be studied using Caco-2 cells (human intestinal epithelial cells), and confirmed using SH-SY5Y (human neuroblastoma), HEK293 (human embryonic kidney) and CRFK (kidney epithelial) cells. Monolayers of cells will be cultured in 12-well plates (5×10^5 cells/well) coated with collagen for 3 days. On day 4, the cells will be washed twice with pre-warmed HBSS, and incubated with 0.2 mL of HBSS containing 250 nM [^3H] peptide conjugates; [^3H] aromatic-cationic peptides (an equivalent molar dose of aromatic-cationic peptide based on the concentration of the aromatic-cationic peptide administered in the peptide conjugate treatment group); [^3H] SPN10(s) (an equivalent molar dose of SPN10 based on the concentration of SPN10 administered in the peptide conjugate treatment group); or SPN10(s) in combination with aromatic-cationic peptides (e.g., an equivalent molar dose of SPN10 based on the concentration of SPN10 administered in the peptide conjugate treatment group and an equivalent molar dose of aromatic-cationic peptide based on the concentration of aromatic-cationic peptide administered in the peptide conjugate treatment group) at 37° C. or 4° C. for various times up to 1 hour. […] The cell lysates will then be transferred to scintillation vials and radioactivity will be counted. To distinguish between internalized radioactivity and surface-associated radioactivity, an acid-wash step will be included. […] Excitation will be performed at 340 nm by means of a UV laser, and emission will be measured at 520 nm. […]

Consider one compound from patent US20240108740A1, “THERAPEUTIC COMPOSITIONS INCLUDING SPN10 AND USES THEREOF” (Stealth BioTherapeutics Inc., priority 2022, published 2024).

Residues, ends and D or L forms follow the SMILES beside them.

`N=C(N)NCCC[C@H](NC(=O)[C@@H](N)Cc1c[nH]c2ccccc12)C(=O)N[C@@H](Cc1c[nH]c2ccccc12)C(=O)N[C@@H](CCCCN)C(N)=O` [SPN10, H-L-Trp-L-Arg-L-Trp-L-Lys-NH2] (H-WRWK-NH2): the hyperalgesia symptoms entry in the data set with vincristine-related pain was “reduction”. In addition, in data set [1], the “rate of uptake at 4° C. compared to 37° C.” value is listed as “slower”, the “saturation of uptake by 45 minutes” value worked out at 76.5% and the “saturation of uptake by 1 hour” value came to 86.3%.
